From PubChem BioAssay (NCI)
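Results reflect a 48-hour exposure of cells in 96-well plates to compound at five concentrations. Abbreviation: GI50, concentration required for 50% inhibition of growth. TGI: concentration producing complete growth inhibition.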

What was measured:
Experiment in all cases: NCI-60 cell line screen, 48 h
[1] = test system: U251 CNS
[2] = test system: COLO 205 colon
[3] = test system: SN12C renal
[4] = test system: A498 renal
[5] = test system: SF-295 CNS
[6] = test system: SF-539 CNS
[7] = test system: SK-MEL-28 melanoma
[8] = test system: OVCAR-5 ovarian
[9] = test system: OVCAR-4 ovarian
[10] = test system: M14 melanoma

SMILES | TGI [1] | TGI [2] | TGI [3] | TGI [4] | TGI [5] | TGI [6] | TGI [7] | TGI [8] | TGI [9] | TGI [10] | GI50 [6] | GI50 [1] | GI50 [2] | GI50 [3] | GI50 [4] | GI50 [5] | GI50 [7] | GI50 [8] | GI50 [9] | GI50 [10]
CN(/N=C/c1ccc(OCc2cccc(COc3ccc(C=O)cc3)n2)cc1)c1cnn(-c2ccc(Cl)cc2Cl)c(=O)c1Cl | > 100 µM | > 100 µM | > 100 µM | > 100 µM | > 100 µM | 46.9 µM | > 100 µM | > 100 µM | > 100 µM | > 100 µM | – | – | – | – | – | – | – | – | – | –
COc1ccc(O)c(/C(C)=N/NC(=S)N(C)C)c1 | > 100 µM | > 100 µM | > 100 µM | > 100 µM | > 100 µM | > 100 µM | > 100 µM | > 100 µM | 54.3 µM | > 100 µM | – | – | – | – | – | – | – | – | – | –
CCNc1cc2c(cc1O)CC[C@@H]1[C@@H]2CC[C@]2(C)[C@@H](O)CC[C@@H]12 | 18.5 µM | 27.8 µM | 29.1 µM | 6.16 µM | 13.3 µM | 15.5 µM | 24.5 µM | 34.7 µM | 21.5 µM | 18.9 µM | 0.741 µM | – | – | – | – | – | – | – | – | –
CCCCCCCCCCN(CCCCCCCCCC)C(=O)COc1c2cc(C(C)(C)C)cc1Cc1cc(C(C)(C)C)cc(c1OCC(=O)N(CCCCCCCCCC)CCCCCCCCCC)Cc1cc(C(C)(C)C)cc(c1OCC(=O)N(CCCCCCCCCC)CCCCCCCCCC)Cc1cc(C(C)(C)C)cc(c1OCC(=O)N(CCCCCCCCCC)CCCCCCCCCC)C2 | 23.2 µM | 29.2 µM | 26.2 µM | 29.1 µM | 21.7 µM | 13.7 µM | 24.1 µM | 26.1 µM | 22.4 µM | 8.01 µM | – | – | – | – | – | – | – | – | – | –
CCN(CC)CC(=O)O[C@]1(CC)C(=O)OCc2c1cc1n(c2=O)Cc2cc3ccccc3nc2-1 | 0.221 µM | 3.22 µM | 1.8 µM | 0.256 µM | 1.08 µM | 0.17 µM | 39.1 µM | 1.43 µM | 0.62 µM | 0.318 µM | – | – | – | – | – | – | – | – | – | –
CNc1nc2n(CCO)c(-c3ccccc3)c(-c3ccccc3)nc-2c(=O)n1 | > 50 µM | > 50 µM | > 50 µM | > 50 µM | > 50 µM | > 50 µM | > 50 µM | > 50 µM | > 50 µM | > 50 µM | – | – | – | – | – | – | – | – | – | –
Cc1ccc2c(c1)C1(C)OC(C=CC1=O)O2 (stereo unspecified) | 0.549 µM | 1.43 µM | 0.862 µM | 13.4 µM | 11.9 µM | 1.27 µM | 2.03 µM | 4.46 µM | 2.29 µM | 1.13 µM | – | – | – | – | – | – | – | – | – | –
CCOC(=O)C1(C(=O)OCC)C[C@H](C)[C@](C)(O)C1 | > 100 µM | > 100 µM | > 100 µM | > 100 µM | > 100 µM | > 100 µM | > 100 µM | > 100 µM | > 100 µM | > 100 µM | – | – | – | – | – | – | – | – | – | –
O=S1(=O)N(CCNc2nccc(-c3c(-c4cccc(O)c4)nc4sccn34)n2)CCN1Cc1ccccc1 | > 50 µM | 32.3 µM | > 50 µM | 4.35 µM | 20.3 µM | > 50 µM | > 50 µM | > 50 µM | > 50 µM | 27.7 µM | 7.14 µM | 8.21 µM | 0.621 µM | 9.5 µM | 1.78 µM | 7.57 µM | 0.417 µM | 29.8 µM | 13.6 µM | 0.461 µM
C=C(CC[C@@H](C)[C@H]1CC[C@@]2(C)C3=C(CC[C@]12C)[C@@]1(C)CC[C@H](O)[C@@H](C)C1CC3)C(C)C (stereo partly specified) | 3.11 µM | 2.41 µM | 2.72 µM | 2.58 µM | 2.27 µM | 2.71 µM | 2.51 µM | 2.67 µM | 3.3 µM | 2.36 µM | – | – | – | – | – | – | – | – | – | –
CC(=NNC(=S)Nc1ccc(C)cc1)c1cccc(C(C)=NNC(=S)Nc2ccc(C)cc2)n1 | 97 µM | 43.8 µM | > 100 µM | 80.9 µM | 71.7 µM | 28.1 µM | > 100 µM | > 100 µM | 89.1 µM | 47.7 µM | – | – | – | – | – | – | – | – | – | –
O=c1[nH]nc(Cc2ccccc2)[nH]1 | > 100 µM | > 100 µM | > 100 µM | > 100 µM | > 100 µM | > 100 µM | > 100 µM | > 100 µM | > 100 µM | > 100 µM | – | – | – | – | – | – | – | – | – | –
c1ccc2c(c1)nc1n2CNC1 | > 100 µM | > 100 µM | > 100 µM | > 100 µM | > 100 µM | > 100 µM | > 100 µM | > 100 µM | > 100 µM | > 100 µM | – | – | – | – | – | – | – | – | – | –
Cc1cccc2c(N)c3cccc(C(=O)NCC[N+](C)(C)Cc4c([N+](=O)[O-])ncn4C)c3nc12 | > 100 µM | > 100 µM | > 100 µM | > 100 µM | > 100 µM | 36.9 µM | > 100 µM | > 100 µM | > 72.5 µM | > 100 µM | – | – | – | – | – | – | – | – | – | –
CC(C)(C)c1ccc(-c2nc3ccc(Cl)cc3c(=O)o2)cc1 | 31.3 µM | 39.9 µM | > 100 µM | 79.4 µM | 58.1 µM | 35.8 µM | 57.2 µM | 80.9 µM | 63.1 µM | 49.2 µM | – | – | – | – | – | – | – | – | – | –
C=C1CC[C@H](O)C(C)(C)[C@@H]1CC/C(C)=C/CC/C=C(\C)CC/C=C(\C)CCC=C(C)C | > 100 µM | > 100 µM | > 100 µM | > 100 µM | > 100 µM | > 100 µM | > 100 µM | > 100 µM | > 100 µM | > 100 µM | – | – | – | – | – | – | – | – | – | –
